Data reported in the supplement of paper PMC11208160.

Test: recombinant UMI read abundance after kanamycin selection (control-corrected) (log10(CPM+1)); higher = more efficient recombination; extreme values may be limits of the assay; sequences stand for … in AGTGCAGAGAAAATCGGCCAGTTTTCTCTGCCTGCAGTCCGCATGCCGTGGGACCCCTTGGGTTCTAACCTGTTGCCTAGATTTATGCAGCGGACTGCCTTTCTCCCAAAGTGATAAACCGG…AGGTTGGTTTCACT; site = the 11-nt donor
Procedure: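 Pooled E. coli donor-specificity screen for the IS621 bridge recombinase. Each library member carries a reprogrammed 11-nt donor and a full-length LE bridge RNA expressed in cis from the natural promoter, with a paired donor-binding loop (8-nt LDG + 4-nt RDG) and a target-binding loop fixed to T5. It is co-electroporated with a T5 target plasmid; recombinase is induced with 0.07 mM IPTG and recombinants are selected on kanamycin. UMIs are counted as CPM, averaged over two biological replicates and corrected by the unselected control. Molecule = full bridge RNA written as DNA, built from the T5 scaffold: LDG = donor specificity nt 1-8, RDG = reverse complement of nt 8-11.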
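Further: IS621 bridge recombinase in Escherichia coli cells against a fixed T5 target plasmid.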

Sequence | recombinant UMI read abundance (log10)
ACATTGCCATGGACCGGTTTTCCCGGTAATCCGTATTTGGG (site ACATTGCCTCC) | 0.0159
ACATTGGCATGGACCGGTTTTCCCGGTAATCCGTATTTGTT (site ACATTGGCTAA) | 1.53
ACCAATTCATGGACCGGTTTTCCCGGTAATCCGTATTTGCC (site ACCAATTCTGG) | 2.25
ACCAATTCATGGACCGGTTTTCCCGGTAATCCGTATTTGCC (site CCCAATTCTGG) | 1.91
ACCAATTCATGGACCGGTTTTCCCGGTAATCCGTATTTGCC (site GCCAATTCTGG) | 0.507
ACCAATTCATGGACCGGTTTTCCCGGTAATCCGTATTTGCC (site TCCAATTCTGG) | 0.66
ACCAGAACATGGACCGGTTTTCCCGGTAATCCGTATTTGAG (site ACAAGAACTCT) | 0
ACCAGAACATGGACCGGTTTTCCCGGTAATCCGTATTTGAG (site ACCAGAACTCT) | 2.19
ACCAGAACATGGACCGGTTTTCCCGGTAATCCGTATTTGAG (site ACGAGAACTCT) | 0
ACCAGAACATGGACCGGTTTTCCCGGTAATCCGTATTTGAG (site ACTAGAACTCT) | 0.155
ACCAGCTCATGGACCGGTTTTCCCGGTAATCCGTATTTGTC (site ACCAGCTCTGA) | 2.47
ACCATATCATGGACCGGTTTTCCCGGTAATCCGTATTTGTC (site ACCATATCTGA) | 2.03
ACCATATCATGGACCGGTTTTCCCGGTAATCCGTATTTGTC (site CCCATATCTGA) | 0
ACCATATCATGGACCGGTTTTCCCGGTAATCCGTATTTGTC (site GCCATATCTGA) | 0
ACCATATCATGGACCGGTTTTCCCGGTAATCCGTATTTGTC (site TCCATATCTGA) | 0
ACCCAATCATGGACCGGTTTTCCCGGTAATCCGTATTTGGA (site ACCCAATCTTC) | 2.04
ACCCACACATGGACCGGTTTTCCCGGTAATCCGTATTTGTA (site ACCCACACTTA) | 1.92
ACCCACACATGGACCGGTTTTCCCGGTAATCCGTATTTGTA (site CCCCACACTTA) | 0.963
ACCCACACATGGACCGGTTTTCCCGGTAATCCGTATTTGTA (site GCCCACACTTA) | 0.0193
ACCCACACATGGACCGGTTTTCCCGGTAATCCGTATTTGTA (site TCCCACACTTA) | 0.408
ACCCATTCATGGACCGGTTTTCCCGGTAATCCGTATTTGGA (site ACCCATTCTTC) | 1.53
ACCCCAACATGGACCGGTTTTCCCGGTAATCCGTATTTGGT (site ACCCCAACTAC) | 0.756
ACCCCATCATGGACCGGTTTTCCCGGTAATCCGTATTTGAT (site ACCCCATCTAT) | 1.23
ACCCCGACATGGACCGGTTTTCCCGGTAATCCGTATTTGTG (site ACCCCGACTCA) | 0.965

Sequence | recombinant UMI read abundance (log10)
ACCCCTACATGGACCGGTTTTCCCGGTAATCCGTATTTGAA (site ACCCCTACTTT) | 1.06
ACCCGCTCATGGACCGGTTTTCCCGGTAATCCGTATTTGCA (site ACCCGCTCTTG) | 2.9
ACCCTCACATGGACCGGTTTTCCCGGTAATCCGTATTTGTA (site ACCCTCACTTA) | 0.59
ACCCTTACATGGACCGGTTTTCCCGGTAATCCGTATTTGAG (site ACCCTTACTCT) | 1.66
ACCCTTTCATGGACCGGTTTTCCCGGTAATCCGTATTTGAC (site AACCTTTCTGT) | 0
ACCCTTTCATGGACCGGTTTTCCCGGTAATCCGTATTTGAC (site ACCCTTTCTGT) | 0
ACCCTTTCATGGACCGGTTTTCCCGGTAATCCGTATTTGAC (site AGCCTTTCTGT) | 0
ACCCTTTCATGGACCGGTTTTCCCGGTAATCCGTATTTGAC (site ATCCTTTCTGT) | 0
ACCGAGACATGGACCGGTTTTCCCGGTAATCCGTATTTGGG (site ACCAAGACTCC) | 0.109
ACCGAGACATGGACCGGTTTTCCCGGTAATCCGTATTTGGG (site ACCCAGACTCC) | 0.0111
ACCGAGACATGGACCGGTTTTCCCGGTAATCCGTATTTGGG (site ACCGAGACTCC) | 0.621
ACCGAGACATGGACCGGTTTTCCCGGTAATCCGTATTTGGG (site ACCTAGACTCC) | 0
ACCGAGCCATGGACCGGTTTTCCCGGTAATCCGTATTTGAT (site ACCGAGCCTAT) | 1.13
ACCGATACATGGACCGGTTTTCCCGGTAATCCGTATTTGAA (site ACCGATACTTT) | 1.6
ACCGCTACATGGACCGGTTTTCCCGGTAATCCGTATTTGCC (site ACCGCTACTGG) | 1.75
ACCGGACCATGGACCGGTTTTCCCGGTAATCCGTATTTGGC (site ACCGGACCTGC) | 0
ACCGGTCCATGGACCGGTTTTCCCGGTAATCCGTATTTGCA (site ACCGGTCCTTG) | 0
ACCGGTCCATGGACCGGTTTTCCCGGTAATCCGTATTTGCA (site CCCGGTCCTTG) | 0
ACCGGTCCATGGACCGGTTTTCCCGGTAATCCGTATTTGCA (site GCCGGTCCTTG) | 0
ACCGGTCCATGGACCGGTTTTCCCGGTAATCCGTATTTGCA (site TCCGGTCCTTG) | 0
ACCGGTCCATGGACCGGTTTTCCCGGTAATCCGTATTTGTT (site ACCGGTCCTAA) | 0
ACCTACGCATGGACCGGTTTTCCCGGTAATCCGTATTTGAA (site ACCTACGCTTT) | 1.09
ACCTAGACATGGACCGGTTTTCCCGGTAATCCGTATTTGAG (site ACCTAGACTCA) | 0.226
ACCTAGACATGGACCGGTTTTCCCGGTAATCCGTATTTGAG (site ACCTAGACTCC) | 0.241

Sequence | recombinant UMI read abundance (log10)
ACCTAGACATGGACCGGTTTTCCCGGTAATCCGTATTTGAG (site ACCTAGACTCG) | 0.352
ACCTAGACATGGACCGGTTTTCCCGGTAATCCGTATTTGAG (site ACCTAGACTCT) | 1.17
ACCTAGACATGGACCGGTTTTCCCGGTAATCCGTATTTGGT (site ACCTAGACTAC) | 0.0673
ACCTAGACATGGACCGGTTTTCCCGGTAATCCGTATTTGGT (site ACCTAGACTCC) | 0.0175
ACCTAGACATGGACCGGTTTTCCCGGTAATCCGTATTTGGT (site ACCTAGACTGC) | 0
ACCTAGACATGGACCGGTTTTCCCGGTAATCCGTATTTGGT (site ACCTAGACTTC) | 0.0137
ACCTCAGCATGGACCGGTTTTCCCGGTAATCCGTATTTGGG (site AACTCAGCTCC) | 0.0172
ACCTCAGCATGGACCGGTTTTCCCGGTAATCCGTATTTGGG (site ACCTCAGCTCC) | 0.00849
ACCTCAGCATGGACCGGTTTTCCCGGTAATCCGTATTTGGG (site AGCTCAGCTCC) | 0.0171
ACCTCAGCATGGACCGGTTTTCCCGGTAATCCGTATTTGGG (site ATCTCAGCTCC) | 0.0291
ACCTCGTCATGGACCGGTTTTCCCGGTAATCCGTATTTGAA (site ACCTCGTCTTT) | 0.5
ACCTGAACATGGACCGGTTTTCCCGGTAATCCGTATTTGGC (site ACCTGAACTGC) | 1.39
ACCTTGCCATGGACCGGTTTTCCCGGTAATCCGTATTTGAA (site ACCTTGCCTTT) | 0.00655
ACGAAAACATGGACCGGTTTTCCCGGTAATCCGTATTTGCA (site ACGAAAACTTG) | 2.73
ACGAAAACATGGACCGGTTTTCCCGGTAATCCGTATTTGCA (site AGGAAGACTTG) | 0
ACGAGAACATGGACCGGTTTTCCCGGTAATCCGTATTTGAG (site ACAAGAACTCT) | 2.65
ACGAGAACATGGACCGGTTTTCCCGGTAATCCGTATTTGAG (site ACCAGAACTCT) | 0.752
ACGAGAACATGGACCGGTTTTCCCGGTAATCCGTATTTGAG (site ACGAGAACTCT) | 2.59
ACGAGAACATGGACCGGTTTTCCCGGTAATCCGTATTTGAG (site ACTAGAACTCT) | 0.873
ACGATTGCATGGACCGGTTTTCCCGGTAATCCGTATTTGGA (site ACGATTGCTTC) | 1.97
ACGCACACATGGACCGGTTTTCCCGGTAATCCGTATTTGAA (site ACGCACACTTT) | 2.08
ACGCATCCATGGACCGGTTTTCCCGGTAATCCGTATTTGAC (site ACACATCCTGT) | 1.31
ACGCATCCATGGACCGGTTTTCCCGGTAATCCGTATTTGAC (site ACCCATCCTGT) | 0
ACGCATCCATGGACCGGTTTTCCCGGTAATCCGTATTTGAC (site ACGCATCCTGT) | 1.8
